Laboratory results taken from ChEMBL document CHEMBL4145597, “BMS-986163, a Negative Allosteric Modulator of GluN2B with Potential Utility in Major Depressive Disorder” (ACS Med Chem Lett, 2018).
Values after ≈ are worked out from the molar mass of the structure shown. Active and inactive are the calls of the source. No cut-off for these calls is given here.

Key:
[1] = Aqueous solubility of the compound at pH 7.4; assay type: physicochemical; details: aqueous medium
[2] = system: Rattus norvegicus; experiment: Toxicity in rat assessed as histopathological observations at 10 to 100 mg/kg/day administered iv; assay type: organism-based; details: in vivo
[3] = system: Rhesus monkey; experiment: Cmax in monkey at 36 mg/kg, iv assessed as BMS-986169 level in plasma; assay type: ADME, organism-based, Macaca mulatta; set-up: dose 36 mg/kg, route intravenous; details: in vivo
[4] = system: Rattus norvegicus; experiment: Toxicity in rat assessed as clinical pathological observations at 10 to 100 mg/kg/day administered iv; assay type: organism-based; details: in vivo
[5] = Stability of the compound at 50 degC up to 4 weeks using solid state compound; assay type: physicochemical; details: 672 h
[6] = system: Rhesus monkey; experiment: Toxicity in monkey at 3.6 to 36 mg/kg, iv administered as single dose; assay type: organism-based, Macaca mulatta; details: in vivo
[7] = Stability of the compound in aqueous solution at 25 degC up to 90 days; assay type: physicochemical; details: buffer, 2160 h
[8] = target: Glutamate receptor ionotropic, NMDA 2C (Homo sapiens) (UniProt Q14957); experiment: Negative allosteric modulation of human GluN2C receptor expressed in Xenopus laevis oocytes assessed as inhibition of glutamate/glycine-induced channel current at 3 uM after 10 to 15 mins by two electrode voltage clamp based electrophysiology assay; assay type: cell-based
[9] = target: Glutamate receptor ionotropic, NMDA 2D (Homo sapiens) (UniProt O15399); experiment: Negative allosteric modulation of human GluN2D receptor expressed in Xenopus laevis oocytes assessed as inhibition of glutamate/glycine-induced channel current at 3 uM after 10 to 15 mins by two electrode voltage clamp based electrophysiology assay; assay type: cell-based
[10] = target: Glutamate receptor ionotropic, NMDA 2A (Homo sapiens) (UniProt Q12879); experiment: Negative allosteric modulation of human GluN2A receptor expressed in Xenopus laevis oocytes assessed as inhibition of glutamate/glycine-induced channel current at 3 uM after 10 to 15 mins by two electrode voltage clamp based electrophysiology assay; assay type: cell-based
[11] = target: Glutamate receptor ionotropic, NMDA 2B (Homo sapiens, UniProt Q13224); experiment: Negative allosteric modulation of human GluN2B receptor expressed in Xenopus laevis oocytes assessed as inhibition of glutamate/glycine-induced channel current after 15 to 20 mins by two electrode voltage clamp based electrophysiology assay; assay type: cell-based
[12] = target: Voltage-gated inwardly rectifying potassium channel KCNH2 (Homo sapiens, UniProt Q12809); experiment: Inhibition of human ERG expressed in HEK293 cells assessed as reduction in peak tail current after 2 to 5 mins by patch clamp based electrophysiology assay; assay type: cell-based
[13] = Plasma concentration in CD-1 mouse at 0.1 to 1 mg/kg, iv; assay type: ADME, organism-based; details: in vivo
[14] = system: Mus musculus; experiment: Ex vivo receptor occupancy at GluN2B receptor in CD-1 mouse forebrain membranes assessed as reduction in [3H]Ro 25-6981 receptor labeling at 1 mg/kg, iv incubated for 5 mins by topcount micro scintillation counting method; assay type: functional
[15] = system: Mus musculus; experiment: Ex vivo receptor occupancy at GluN2B receptor in CD-1 mouse forebrain membranes assessed as reduction in [3H]Ro 25-6981 receptor labeling at 3 mg/kg, iv incubated for 5 mins by topcount micro scintillation counting method; assay type: functional
[16] = target: Glutamate receptor ionotropic, NMDA 2B (Rattus norvegicus, UniProt Q00960); experiment: Displacement of [3H]Ro 25-6981 from GluN2B receptor in Sprague-Dawley rat forebrain membranes incubated for 1 hr by topcount micro scintillation counting method; set-up: species or system Membrane

Chain of Voltage-gated inwardly rectifying potassium channel KCNH2 (Q12809 whole entry): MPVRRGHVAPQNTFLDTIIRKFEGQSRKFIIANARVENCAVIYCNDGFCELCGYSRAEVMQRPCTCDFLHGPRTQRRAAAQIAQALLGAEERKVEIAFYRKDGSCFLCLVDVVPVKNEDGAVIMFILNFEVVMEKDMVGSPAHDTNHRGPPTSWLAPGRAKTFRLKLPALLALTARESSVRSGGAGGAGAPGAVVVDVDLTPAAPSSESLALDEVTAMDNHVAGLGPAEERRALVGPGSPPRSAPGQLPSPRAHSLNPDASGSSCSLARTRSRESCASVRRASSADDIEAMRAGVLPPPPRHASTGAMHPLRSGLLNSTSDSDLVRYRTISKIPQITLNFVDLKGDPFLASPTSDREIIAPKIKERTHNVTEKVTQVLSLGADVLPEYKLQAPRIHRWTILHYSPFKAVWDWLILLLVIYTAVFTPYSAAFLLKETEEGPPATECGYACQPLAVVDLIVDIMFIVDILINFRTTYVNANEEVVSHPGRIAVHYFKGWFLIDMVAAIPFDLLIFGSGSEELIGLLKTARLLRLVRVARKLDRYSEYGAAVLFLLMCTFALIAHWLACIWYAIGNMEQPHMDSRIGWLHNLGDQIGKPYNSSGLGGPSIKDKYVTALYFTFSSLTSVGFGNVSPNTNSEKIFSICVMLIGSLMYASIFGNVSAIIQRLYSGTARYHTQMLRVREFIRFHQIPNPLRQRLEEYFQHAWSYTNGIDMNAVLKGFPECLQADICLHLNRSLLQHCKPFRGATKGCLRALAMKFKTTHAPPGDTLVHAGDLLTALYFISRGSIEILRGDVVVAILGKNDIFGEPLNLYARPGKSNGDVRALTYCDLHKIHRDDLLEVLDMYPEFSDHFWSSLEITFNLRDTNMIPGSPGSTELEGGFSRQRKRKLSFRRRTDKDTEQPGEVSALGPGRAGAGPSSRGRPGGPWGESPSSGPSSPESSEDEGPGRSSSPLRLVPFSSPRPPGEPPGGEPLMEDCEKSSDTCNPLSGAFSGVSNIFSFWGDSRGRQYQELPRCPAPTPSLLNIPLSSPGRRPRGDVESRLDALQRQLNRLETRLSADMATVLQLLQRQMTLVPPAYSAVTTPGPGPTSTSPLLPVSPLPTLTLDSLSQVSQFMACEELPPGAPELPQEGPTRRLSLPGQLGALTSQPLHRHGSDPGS
Chain of Glutamate receptor ionotropic, NMDA 2B (Homo sapiens, UniProt Q13224) (Q13224 27-1484 limits assumed): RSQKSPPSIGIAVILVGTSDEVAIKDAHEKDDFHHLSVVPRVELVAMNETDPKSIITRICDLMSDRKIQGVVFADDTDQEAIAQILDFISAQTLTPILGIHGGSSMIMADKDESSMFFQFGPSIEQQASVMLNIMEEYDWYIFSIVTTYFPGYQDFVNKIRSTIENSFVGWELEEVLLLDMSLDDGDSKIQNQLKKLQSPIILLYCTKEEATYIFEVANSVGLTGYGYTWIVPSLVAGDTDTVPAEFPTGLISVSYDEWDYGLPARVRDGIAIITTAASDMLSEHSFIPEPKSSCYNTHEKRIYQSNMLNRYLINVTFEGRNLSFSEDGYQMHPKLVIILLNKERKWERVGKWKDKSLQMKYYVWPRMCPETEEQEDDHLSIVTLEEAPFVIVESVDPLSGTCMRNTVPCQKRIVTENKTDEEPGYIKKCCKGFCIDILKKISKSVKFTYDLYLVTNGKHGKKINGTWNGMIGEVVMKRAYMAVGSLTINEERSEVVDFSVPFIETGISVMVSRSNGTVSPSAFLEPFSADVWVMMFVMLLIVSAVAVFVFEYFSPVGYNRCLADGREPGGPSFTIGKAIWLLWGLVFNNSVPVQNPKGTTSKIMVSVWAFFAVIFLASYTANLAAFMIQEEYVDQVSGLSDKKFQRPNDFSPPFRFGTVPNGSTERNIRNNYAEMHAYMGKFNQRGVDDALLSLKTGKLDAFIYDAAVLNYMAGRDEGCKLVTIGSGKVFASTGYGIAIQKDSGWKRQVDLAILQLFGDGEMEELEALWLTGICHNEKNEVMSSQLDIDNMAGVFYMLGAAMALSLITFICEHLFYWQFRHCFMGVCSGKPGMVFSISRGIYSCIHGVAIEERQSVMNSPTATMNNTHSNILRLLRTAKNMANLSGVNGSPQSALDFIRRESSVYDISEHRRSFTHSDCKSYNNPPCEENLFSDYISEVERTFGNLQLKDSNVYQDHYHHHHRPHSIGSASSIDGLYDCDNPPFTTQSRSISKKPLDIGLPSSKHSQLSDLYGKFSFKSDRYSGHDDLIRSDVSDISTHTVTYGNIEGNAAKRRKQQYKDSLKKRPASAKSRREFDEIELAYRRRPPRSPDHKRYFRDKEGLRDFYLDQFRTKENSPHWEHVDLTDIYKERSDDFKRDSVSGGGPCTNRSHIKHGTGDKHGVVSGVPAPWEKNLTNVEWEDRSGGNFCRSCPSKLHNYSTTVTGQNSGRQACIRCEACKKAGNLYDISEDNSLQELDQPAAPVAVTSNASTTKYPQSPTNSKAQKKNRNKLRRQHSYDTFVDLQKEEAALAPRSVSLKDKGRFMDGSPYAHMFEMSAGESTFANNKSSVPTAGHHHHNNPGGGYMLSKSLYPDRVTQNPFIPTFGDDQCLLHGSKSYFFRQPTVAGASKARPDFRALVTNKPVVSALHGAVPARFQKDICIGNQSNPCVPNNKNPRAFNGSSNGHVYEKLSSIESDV
Chain of Glutamate receptor ionotropic, NMDA 2A (Homo sapiens) (Q12879 23-1464 limits assumed): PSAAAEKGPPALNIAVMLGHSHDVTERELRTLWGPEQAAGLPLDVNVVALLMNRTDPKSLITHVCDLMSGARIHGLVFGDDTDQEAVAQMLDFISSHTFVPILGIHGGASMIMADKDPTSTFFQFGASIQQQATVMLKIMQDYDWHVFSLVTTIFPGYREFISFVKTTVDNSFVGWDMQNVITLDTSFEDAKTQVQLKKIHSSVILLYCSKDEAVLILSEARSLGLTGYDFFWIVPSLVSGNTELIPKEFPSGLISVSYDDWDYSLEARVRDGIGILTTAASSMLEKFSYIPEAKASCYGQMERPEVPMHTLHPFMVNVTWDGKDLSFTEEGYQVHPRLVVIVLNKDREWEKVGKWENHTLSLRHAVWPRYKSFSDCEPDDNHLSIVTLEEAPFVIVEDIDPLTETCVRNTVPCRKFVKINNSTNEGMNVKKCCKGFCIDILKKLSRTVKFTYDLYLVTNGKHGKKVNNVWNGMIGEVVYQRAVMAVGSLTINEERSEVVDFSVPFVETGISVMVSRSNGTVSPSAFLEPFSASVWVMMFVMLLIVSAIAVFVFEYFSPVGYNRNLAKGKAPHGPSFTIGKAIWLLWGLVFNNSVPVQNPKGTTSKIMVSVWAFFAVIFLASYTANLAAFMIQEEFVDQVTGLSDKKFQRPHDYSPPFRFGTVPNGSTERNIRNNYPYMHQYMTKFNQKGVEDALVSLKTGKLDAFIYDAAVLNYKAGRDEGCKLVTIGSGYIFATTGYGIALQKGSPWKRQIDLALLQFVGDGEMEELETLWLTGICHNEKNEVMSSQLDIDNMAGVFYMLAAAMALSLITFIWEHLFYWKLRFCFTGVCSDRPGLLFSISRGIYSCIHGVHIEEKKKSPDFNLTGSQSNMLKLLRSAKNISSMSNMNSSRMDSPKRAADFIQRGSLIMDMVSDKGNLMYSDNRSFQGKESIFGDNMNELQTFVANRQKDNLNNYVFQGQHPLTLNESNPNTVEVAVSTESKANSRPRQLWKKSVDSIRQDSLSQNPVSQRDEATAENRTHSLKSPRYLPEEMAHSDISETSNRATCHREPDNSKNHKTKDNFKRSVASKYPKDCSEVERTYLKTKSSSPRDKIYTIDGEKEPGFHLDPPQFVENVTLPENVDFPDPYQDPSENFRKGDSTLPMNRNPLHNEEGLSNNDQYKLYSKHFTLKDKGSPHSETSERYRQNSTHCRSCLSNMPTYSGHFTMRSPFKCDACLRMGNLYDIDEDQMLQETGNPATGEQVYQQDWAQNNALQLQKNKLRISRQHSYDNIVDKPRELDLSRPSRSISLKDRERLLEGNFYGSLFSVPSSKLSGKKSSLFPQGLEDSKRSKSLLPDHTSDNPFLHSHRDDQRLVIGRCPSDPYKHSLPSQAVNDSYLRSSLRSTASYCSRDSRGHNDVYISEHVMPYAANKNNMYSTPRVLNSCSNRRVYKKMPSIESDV

| Structure (SMILES) | inhibition [8] | inhibition [9] | inhibition [10] | inhibition [11] | IC50 [12] [nM] | concentration [13] [nM] | also measured |
| --- | --- | --- | --- | --- | --- | --- | --- |
| Cc1ccc(CN2CC[C@@H](N3CC[C@@H](c4ccc(OP(=O)(O)O)cc4)[C@H](F)C3)C2=O)cc1 |  |  |  |  |  |  | solubility [1]: 19.9 mg/mL (≈ 43 mM); Activity [2]: Non-Toxic; Cmax [3]: 19000 nM; Activity [4]: Non-Toxic; Stability [5]: Stable; Activity [6]: Non-Toxic; Stability [7]: Stable |
| O=C1NCC[C@H]1N1CC[C@@H](c2ccc(O)cc2)[C@H](F)C1 | inactive | inactive | inactive | inactive |  |  |  |
| O=C(O)c1ccc(CN2CC[C@@H](N3CC[C@@H](c4ccc(O)cc4)[C@H](F)C3)C2=O)cc1 | inactive | inactive | inactive | inactive |  |  |  |
| Cc1ccc(CN2CC[C@@H](N3CCC(c4ccc(O)cc4)CC3)C2=O)cc1 |  |  |  |  | 400 | 220 | Occ [14]: 92% |
| O=C1[C@H](N2CC[C@@H](c3ccc(O)cc3)[C@H](F)C2)CCN1Cc1ccc(F)cc1 |  |  |  |  | > 5000 | 1200 | Occ [15]: 81%; Ki [16]: 11 nM |
